From patent US6372768B1, “2-aminopyridines containing fused ring substituents” (Pfizer INC, priority 1999, dated 2002) come the findings set out here.

Counter-ions that a name gives are not always drawn.

On to `Nc1cccc(-c2ccc(OCCO)c3c2CCCC3)n1` (as salt: hydrochloride) [Example 2, 6-[4-(2-Hydroxy-ethoxy)-5,6,7,8-tetrahydro-naphthalen-1-yl]-pyridin-2-ylamine], for which the melting point (usually the temperature of the solid-liquid transition) lay in the range of 170 to 172 °C.

On to `CN(C)CCOCCOc1ccc(-c2cccc(N)n2)c2ccccc12` (as salt: hydrochloride) [Example 3, 6-[4-(2-(2-Dimethylaminoethoxy)-ethoxy)-naphthalen-1-yl]-pyridin-2-ylamine], for which the melting point was 60 to 75 °C (dec.).
